Measured values reported in patent US6346282B1, “Neuroprotective composition for the prevention and/or treatment of nervous and behavioural alterations due to anxiety states or depression, comprising acetyl-L-carnitine and hypericin” (priority 1998, dated 2002).

How the values were obtained:
[1] = test system: motor exploration activity in the mouse; test: Exploratory activity in mice (Hole Board Test); format: in vivo
Protocol: This reduction is not related to sedation caused by the drug in the animal and can be offset using anxiolytic agents.
Using the technique described by Boissier (Boissier J. R., Physiol. Behav., 2. 447. 1967), tests (Hole Board Test) were conducted in order in a group of mice to ascertain whether the reduction in motor exploration activity induced in the animals by low-dose amphetamine (1 mg/kg i.p.) could be corrected by the oral administration of a carnitine mixture (consisting of a combination of L-carnitine+acetyl L-carnitine+propionyl L-carnitine+isovaleryl L carnitine in the same weight ratio to one another), or of acetyl L-carnitine, or Hypericum extract, or hypericin, or various combinations of these products.

[2] = test system: rats and mice; test: Toxicology tests, single-dose oral administration; format: in vivo; conditions: 2 g/kg carnitine mixture, 2 g/kg acetyl L-carnitine, 1 g/kg Hypericum extract (approx. 0.3% hypericin), 3 mg/kg hypericin, each alone
[3] = test system: cerebral (cortex) concentrations of serotonin (5-HT) and hydroxy-indole-acetic acid (5-HIAA); test: Protective action against abnormal brain serotonin concentrations induced by fenfluramine; format: in vivo, (Sprague-Dawley) male rats; conditions: CC 400 mg/kg, AC 400 mg/kg, HE 300 mg/kg, HYP 1 mg/kg, two weeks after treatment
From the text: Since changes in concentration of cerebral biogenic amines regulate both excitatory and depressive emotional behaviour states, it was decided, in view of the above-mentioned action of hypericin and Hypericum extracts at catecholamine and particularly serotoninergic receptor level and on the reuptake of serotonin itself, to evaluate changes in cerebral concentrations of serotonin after treatment with Hypericum extracts, hypericin, carnitine mixture or acetyl L-carnitine, alone or in various combinations, in conjunction with treatment with a substance such as fenfluramine, the neurotoxicity of which manifests itself also through a reduction in brain serotonin concentrations. It is well known, in fact, that fenfluramine [N-ethyl-α-methyl-m-(trifluoro-methyl)phenethylamine] exerts a neurotoxic action on the brain, which is identifiable both histologically on the basis of derangement of the cerebral serotoninergic structures and through depletion of serotonin concentrations in the brain.
The tests were conducted using a group of (Sprague-Dawley) male rats which were administered fenfluramine orally at the dose of 5 mg/kg twice daily for 5 days consecutively, either alone or at the same time, and for the same period, as a carnitine mixture (400 mg/kg) (consisting in a combination of L-carnitine+acetyl L-carnitine+propionyl L-carnitine+isovaleryl L-carnitine present in the same weight ratio to one another), or acetyl L-carnitine (400 mg/kg), or Hypericum extract (with a 0.3% hypericin content−300 mg/kg), or hypericin (1 mg/kg), or various combinations of these products at the same doses.
Two weeks after treatment, the animals were sacrificed and the cerebral cortex isolated and subjected to measurement of the cerebral content both of serotonin (5-HT) and of hydroxy-indole-acetic acid (5-HIAA) according to the method described by Wise (Wise, C. D., Anal. Biochem., 18, 94, 1967) and modified by Ricaurte (Ricaurte, G. A., J. Pharmacol. Exptl. Ther., 261, 616, 1992).

[4] = test system: mice descending from platform; test: Platform Test in mice; format: in vivo; conditions: ten animals per group, carnitine mixture or acetyl L-carnitine 400 mg/kg, Hypericum extract 300 mg/kg, hypericin 1 mg/kg; for % of mice descending from 5 cm: platform 5 cm from the ground; for % of mice descending from 9 cm: platform 9 cm from the ground
Protocol: Ten animals were used per group and the percentage of animals that managed to descend from the platform was calculated. […] It was modified even more by the administration of a combination of these products plus the carnitine mixture (L-carnitine+acetyl L-carnitine+propionyl L-carnitine+isovaleryl L-carnitine present in the same weight ratio to one another, making a total dose of 400 mg/kg) or acetyl L-carnitine 400 mg/kg, neither of which modifies the animals' behaviour when administered alone.

[5] = test system: swimming-induced immobility in mice; test: Immobility induced by forced swimming; format: in vivo; conditions: last four minutes of six, oral, two administrations six hours and three hours before
From the text: One of the tests regarded as being most significant for assessing the activity of antidepressant substances is the forced swimming test in the mouse, which measures the changes in swimming-induced immobility which the various test substances produce (Borsini, F., Psychopharmacology, 94, 147, 1988). In these tests, the technique described by Persolt was adopted (Persolt, R. D., Eur. J. Pharmacol., 57, 201, 1979—Persolt, R. D., Arch. Int. Pharmacology, 229, 327, 1977) using ten […] per group. The animals were placed in beakers measuring 14 cm in height and approximately 12 cm in internal diameter which were filled with water (20-22° C.) up to 7.5 cm from the rim and then left there for six minutes. The duration of the immobility was calculated during the last four minutes. The mice were considered immobile when they performed only the movements necessary to keep themselves afloat on the water.
The substances tested were administered orally in two administrations six hours and three hours prior to the start of the experiment.

[6] = test system: aggression of isolated male mice; test: Isolation-induced aggression test; format: in vivo; conditions: treated eight hours and half an hour before test, observation 180 seconds, carnitine mixture or acetyl L-carnitine 400 mg/kg, Hypericum extract 300 mg/kg, hypericin 1 mg/kg
From the text: This method consists in making the mice aggressive by keeping them isolated for twenty-one days in a cage and in assessing, after treatment, the latency time needed to trigger the aggression of the isolated animal when another animal is put in the cage with it. Only animals with latency times of less than 10 seconds before attacking were included in the tests, and the time of attack was taken as the time the isolated animal bit or tried to bite the other animal introduced into the cage.
The observation time was 180 seconds and the experiment was started 30 minutes after administration of the products tested. All isolated animals were treated, both eight hours and half an hour before the test, with carnitine mixture (consisting of a combination of L-carnitine+acetyl L-carnitine+propionyl L-carnitine+isovaleryl L-carnitine in an equiponderal ratio to one another) (400 mg/kg), or with acetyl L-carnitine (400 mg/kg) or with Hypericum extract (300 mg/kg) or with hypericin (1 mg/kg), or with various combinations of these products.

[7] = product alone, oral, 5 days, FE 5 mg/kg twice daily
[8] = together with fenfluramine (FE) 5 mg/kg oral twice daily for 5 days
[9] = oral treatment together with Amphetamine 1 mg/kg i.p., 30 minutes after amphetamine, CC 400 mg/kg, AC 400 mg/kg, HE 300 mg/kg, HYP 1 mg/kg

Compound	Motor exploration activity, variations compared to controls ([1]; Amphetamine 1 mg/kg i.p. alone, 30 minutes after administration)	Motor exploration activity, variations compared to controls ([1]; Amphetamine 5 mg/kg i.p. alone, 30 minutes after administration)	toxic effects or mortality [2]	Cerebral (cortex) concentrations 5-HIAA [3, 7] [ng/mg tissue]	Cerebral (cortex) concentrations 5-HT [3, 7] [ng/mg tissue]	Cerebral (cortex) concentrations 5-HIAA [3, 8] [ng/mg tissue]	Cerebral (cortex) concentrations 5-HT [3, 8] [ng/mg tissue]	Motor exploration activity, variations compared to controls [1, 9]	% of mice descending from 5 cm [4] [%]	% of mice descending from 9 cm [4] [%]	Immobility time [5]	Latency time of attack [6] [s]
CC(N)Cc1ccccc1 (stereo not drawn) [Amphetamine, amphetamine]	−45	+55										
CC(=O)O[C@H](CC(=O)[O-])C[N+](C)(C)C [Acetyl L-carnitine, acetyl L-carnitine]			lack of toxic effects or mortality	0.28 ± 0.012	0.35 ± 0.020	0.15 ± 0.019	0.18 ± 0.011	−48	70	0	204 ± 8	14 ± 3
CCNC(C)Cc1cccc(C(F)(F)F)c1 (stereo not drawn) [FE, N-ethyl-α-methyl-m-(trifluoro-methyl)phenethylamine]				0.14 ± 0.011	0.17 ± 0.010							
Cc1cc(O)c2c(=O)c3c(O)cc(O)c4c5c(O)cc(O)c6c(=O)c7c(O)cc(C)c8c1c2c(c34)c(c78)c65 [Hypericin, 1,3,4,6,8,13-hexahydroxy-10,11-dimethylphenanthro[1,10,9,8-opqra]perylene-7,14-dione]			lack of toxic effects or mortality	0.30 ± 0.030	0.36 ± 0.019	0.25 ± 0.018	0.28 ± 0.020	−5	90	30	195 ± 5	100 ± 9
